Read-outs that look alike come from different tables or passages of the source.
Assays:
KV11.1 (hERG) = molecular target: T1, KV11.1 (hERG) (Homo sapiens, UniProt Q12809); experiment: Potassium channels patch-clamp (QPatch), KV11.1 (hERG); type: cell-based; conditions: CHO Human KV11.1; read-out: KV11.1 (hERG)
T1 construct: host or cells: CHO
Method: (§1) The effects of Group 4 compounds on related potassium channels were evaluated by patch-clamp using a QPatch HTX automated electrophysiology platform (Sophion, Denmark). The giga-seal and whole-cell requirements for the automated electrophysiology were the following: minimum seal resistance=0.1 GO, holding potential=−80 mV, holding pressure=−20 mbar; and positioning pressure=−70 mbar.

KV1.3 = molecular target: T2, KV1.3 (Mus musculus, UniProt P16390); experiment: Potassium channels patch-clamp (QPatch), KV1.3; type: cell-based; conditions: L929 Mouse KV1.3; read-out: KV1.3
T2 construct: expressed in transfected cells; host or cells: L929
Method: as §1

KCa3.1 channel = KCa3.1 channel (Homo sapiens, UniProt O15554); experiment: KCa3.1 patch-clamp (QPatch HTX automated and manual); type: cell-based
Method: The effect of the compounds on KCa3.1 channel was evaluated by patch-clamp using a QPatch HTX automated electrophysiology platform (Sophion, Denmark) and by manual patch-clamp (HEKA, Germany). For QPatch experiments, the giga-seal and whole-cell requirements for the automated electrophysiology were the following: minimum seal resistance=0.1 GQ; holding potential=−80 mV; holding pressure=−20 mbar; and positioning pressure=−70 mbar. For KCa3.1 experiment, the external solution was Na^+-Ringer's and contained (in mM): 160 NaCl; 10 HEPES; 4.5 KCl; 1 MgCl2; and 2 CaCl2 (pH=7.4, 310 mOsm). […] Following establishment of the whole-cell configuration, cells were held at −80 mV and KCa3.1 currents elicited by a voltage protocol that held at −80 mV for 20 ms, stepped to −120 mV for 20 ms, ramped from −120 to +40 mV over 200 ms, and then stepped back to −120 mV for 20 ms. This pulse protocol was applied every 10 s. Current slopes (in amperes per second) were measured using the Sophion QPatch software and exported to Microsoft Excel and GraphPad Prism 7 for analysis. […] Curve-fitting and IC50 determination were performed using GraphPad Prism software.

KCa2.3 = molecular target: T3, KCa2.3 (Homo sapiens, UniProt Q9UGI6); experiment: Potassium channels patch-clamp (QPatch), KCa2.3; type: cell-based; conditions: COS7 Human KCa2.3; read-out: KCa2.3
T3 construct: expressed in transfected cells; host or cells: COS7
Method: as §1

[1] = molecular target: CaV1.2 channel over KCa3.1 (Homo sapiens, UniProt Q13936); experiment: in vitro; conditions: pH 7.4
Method: (§2) The external solution contained (in mM): 140 TEA-Cl; 2 MgCl2; 10 CaCl2; 10 HEPES; and 5 D-glucose (pH=7.4). The internal solution contained (in mM): 120 CsCl; 1 MgCl2; 10 HEPES; 10 EGTA; 0.3 Na2-GTP; and 4 Mg-ATP (pH=7.2). Following establishment of the whole-cell configuration, CaV1.2 current was recorded at holding membrane potential of −80 mV and then depolarized to +10 mV (test pulse was modified slightly due to lead IV test) for 0.3 s. This protocol was repeated at 20 s intervals to observe the effect of the test compounds on the peak of CaV1.2 current. Each cell was incubated with each test compound for 5 min, or until the current reached steady-state. The compounds were applied at multiple concentrations from low to high. Each cell acted as its own control. The decreases in the peak currents were used to determine the IC50 for CaV1.2 inhibition. Curve-fitting and IC50 calculations were performed using IGOR software.

CaV1.2 channel = CaV1.2 channel (Homo sapiens, UniProt Q13936); experiment: cell-based
Method: as §2

KV1.5 = molecular target: T4, KV1.5 (Homo sapiens, UniProt P22460); experiment: Potassium channels patch-clamp (QPatch), KV1.5; type: cell-based; conditions: MEL Human KV1.5; read-out: KV1.5
T4 construct: expressed in transfected cells; host or cells: MEL
Method: as §1

KCa2.2 = molecular target: T5, KCa2.2 (Rattus norvegicus, UniProt P70604); experiment: Potassium channels patch-clamp (QPatch), KCa2.2; type: cell-based; conditions: HEK Rat KCa2.2; read-out: KCa2.2
T5 construct: expressed in transfected cells; host or cells: HEK
Method: as §1

KCa1.1 = molecular target: T6, KCa1.1 (Homo sapiens, UniProt Q12791); experiment: Potassium channels patch-clamp (QPatch), KCa1.1; type: cell-based; conditions: HEK Human KCa1.1; read-out: KCa1.1
T6 construct: expressed in transfected cells; host or cells: HEK
Method: as §1

KV1.1 = molecular target: T7, KV1.1 (Mus musculus, UniProt P16388); experiment: Potassium channels patch-clamp (QPatch), KV1.1; type: cell-based; conditions: L929 Mouse KV1.1; read-out: KV1.1
T7 construct: expressed in transfected cells; host or cells: L929
Method: as §1

KV4.2 = molecular target: T8, KV4.2 (Rattus norvegicus, UniProt Q63881); experiment: Potassium channels patch-clamp (QPatch), KV4.2; type: cell-based; conditions: LTK Rat KV4.2; read-out: KV4.2
T8 construct: expressed in transfected cells; host or cells: LTK
T8 sequence (Q63881 1-630): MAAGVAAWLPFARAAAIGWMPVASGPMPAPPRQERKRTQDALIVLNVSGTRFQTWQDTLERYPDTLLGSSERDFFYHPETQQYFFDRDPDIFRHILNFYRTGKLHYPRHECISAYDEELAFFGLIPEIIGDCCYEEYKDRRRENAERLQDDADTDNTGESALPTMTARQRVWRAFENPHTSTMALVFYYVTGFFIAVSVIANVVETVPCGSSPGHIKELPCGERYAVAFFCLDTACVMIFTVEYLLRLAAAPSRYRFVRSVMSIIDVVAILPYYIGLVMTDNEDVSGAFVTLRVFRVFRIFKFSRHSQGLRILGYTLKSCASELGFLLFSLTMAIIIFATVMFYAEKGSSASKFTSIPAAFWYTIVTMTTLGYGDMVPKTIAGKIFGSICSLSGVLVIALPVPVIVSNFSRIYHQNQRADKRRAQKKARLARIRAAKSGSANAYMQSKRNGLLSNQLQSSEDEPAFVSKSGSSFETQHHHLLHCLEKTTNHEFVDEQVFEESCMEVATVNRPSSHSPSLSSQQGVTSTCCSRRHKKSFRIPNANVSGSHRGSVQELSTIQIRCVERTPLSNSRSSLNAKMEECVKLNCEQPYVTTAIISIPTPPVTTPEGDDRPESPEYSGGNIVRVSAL
Method: as §1

KV1.4 = molecular target: T9, KV1.4 (Homo sapiens, UniProt P22459); experiment: Potassium channels patch-clamp (QPatch), KV1.4; type: cell-based; conditions: LTK Human KV1.4; read-out: KV1.4
T9 construct: expressed in transfected cells; host or cells: LTK
Method: as §1

KV3.1 = molecular target: T10, KV3.1 (Mus musculus, UniProt P15388); experiment: Potassium channels patch-clamp (QPatch), KV3.1; type: cell-based; conditions: L929 Mouse KV3.1; read-out: KV3.1
T10 construct: expressed in transfected cells; host or cells: L929
T10 sequence (P15388 1-511): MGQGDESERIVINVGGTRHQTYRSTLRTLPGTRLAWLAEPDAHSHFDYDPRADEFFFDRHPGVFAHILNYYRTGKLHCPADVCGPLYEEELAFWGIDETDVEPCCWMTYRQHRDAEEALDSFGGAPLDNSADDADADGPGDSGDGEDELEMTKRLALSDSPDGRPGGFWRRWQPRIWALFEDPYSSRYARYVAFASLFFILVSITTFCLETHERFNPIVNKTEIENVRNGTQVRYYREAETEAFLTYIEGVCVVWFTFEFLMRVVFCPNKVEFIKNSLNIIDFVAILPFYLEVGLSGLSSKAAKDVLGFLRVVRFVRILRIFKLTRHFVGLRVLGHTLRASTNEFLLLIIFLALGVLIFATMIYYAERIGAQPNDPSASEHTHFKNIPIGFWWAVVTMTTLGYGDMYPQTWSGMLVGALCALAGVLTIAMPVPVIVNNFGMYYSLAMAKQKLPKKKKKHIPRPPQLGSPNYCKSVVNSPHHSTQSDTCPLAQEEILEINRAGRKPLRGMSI
Method: as §1

KV1.2 = molecular target: T11, KV1.2 (Rattus norvegicus, UniProt P63142); experiment: Potassium channels patch-clamp (QPatch), KV1.2; type: cell-based; conditions: B82 Rat KV1.2; read-out: KV1.2
T11 construct: expressed in transfected cells; host or cells: B82
Method: as §1

KV1.7 = molecular target: T12, KV1.7 (Homo sapiens, UniProt Q96RP8); experiment: Potassium channels patch-clamp (QPatch), KV1.7; type: cell-based; conditions: CHL Human KV1.7; read-out: KV1.7
T12 construct: expressed in transfected cells; host or cells: CHL
Method: as §1

[2] = IC50 (nM), block of KCa3.1, patch clamp (Table 2)
[3] = block of KCa3.1, patch clamp (Table 2), read-out: IC50

T4 sequence (P22460 whole entry): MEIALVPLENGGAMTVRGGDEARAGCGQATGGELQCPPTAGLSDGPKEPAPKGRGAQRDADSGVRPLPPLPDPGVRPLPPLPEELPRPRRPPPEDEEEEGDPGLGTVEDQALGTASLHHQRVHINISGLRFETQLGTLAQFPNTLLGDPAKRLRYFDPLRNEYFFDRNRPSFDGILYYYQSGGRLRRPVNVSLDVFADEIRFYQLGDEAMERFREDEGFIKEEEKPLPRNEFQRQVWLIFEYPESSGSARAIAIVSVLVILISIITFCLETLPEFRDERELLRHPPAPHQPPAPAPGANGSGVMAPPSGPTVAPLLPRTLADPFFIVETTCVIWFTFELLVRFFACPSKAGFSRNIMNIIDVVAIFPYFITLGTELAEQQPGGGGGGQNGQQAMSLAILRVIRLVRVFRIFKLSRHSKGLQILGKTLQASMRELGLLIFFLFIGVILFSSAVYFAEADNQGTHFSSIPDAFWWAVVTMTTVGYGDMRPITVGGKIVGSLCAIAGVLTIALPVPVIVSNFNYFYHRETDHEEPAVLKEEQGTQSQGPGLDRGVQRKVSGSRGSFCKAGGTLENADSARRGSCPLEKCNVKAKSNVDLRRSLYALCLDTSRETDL
T1 sequence (Q12809 whole entry): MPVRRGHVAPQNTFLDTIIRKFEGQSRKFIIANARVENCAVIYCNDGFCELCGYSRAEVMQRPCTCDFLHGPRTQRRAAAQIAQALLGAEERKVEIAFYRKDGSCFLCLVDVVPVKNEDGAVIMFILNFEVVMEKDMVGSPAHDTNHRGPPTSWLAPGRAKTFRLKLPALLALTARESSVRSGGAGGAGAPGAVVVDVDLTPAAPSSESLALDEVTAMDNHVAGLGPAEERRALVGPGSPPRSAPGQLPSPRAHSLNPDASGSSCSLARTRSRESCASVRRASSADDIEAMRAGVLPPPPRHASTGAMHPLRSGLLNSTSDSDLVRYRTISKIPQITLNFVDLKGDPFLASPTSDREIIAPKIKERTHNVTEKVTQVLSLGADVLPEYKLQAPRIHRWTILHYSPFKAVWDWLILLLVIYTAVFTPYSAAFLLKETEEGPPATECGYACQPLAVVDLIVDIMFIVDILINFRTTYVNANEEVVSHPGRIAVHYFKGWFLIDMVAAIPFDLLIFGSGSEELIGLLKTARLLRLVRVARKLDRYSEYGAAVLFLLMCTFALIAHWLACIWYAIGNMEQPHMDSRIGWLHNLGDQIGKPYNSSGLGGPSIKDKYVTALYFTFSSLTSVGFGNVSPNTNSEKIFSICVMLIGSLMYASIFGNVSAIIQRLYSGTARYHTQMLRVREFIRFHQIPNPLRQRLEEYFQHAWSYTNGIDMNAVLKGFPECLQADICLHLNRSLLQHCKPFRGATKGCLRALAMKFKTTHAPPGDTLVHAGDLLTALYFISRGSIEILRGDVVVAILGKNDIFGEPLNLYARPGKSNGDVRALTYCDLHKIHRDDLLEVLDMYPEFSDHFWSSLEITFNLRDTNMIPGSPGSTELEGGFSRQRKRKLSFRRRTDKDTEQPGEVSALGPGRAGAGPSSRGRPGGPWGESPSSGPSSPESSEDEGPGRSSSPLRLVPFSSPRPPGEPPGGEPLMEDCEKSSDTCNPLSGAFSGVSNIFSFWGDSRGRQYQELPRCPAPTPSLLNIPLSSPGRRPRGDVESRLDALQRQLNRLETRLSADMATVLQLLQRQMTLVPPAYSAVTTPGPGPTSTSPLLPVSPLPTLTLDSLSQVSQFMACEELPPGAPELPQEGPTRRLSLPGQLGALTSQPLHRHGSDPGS
T3 sequence (Q9UGI6 whole entry): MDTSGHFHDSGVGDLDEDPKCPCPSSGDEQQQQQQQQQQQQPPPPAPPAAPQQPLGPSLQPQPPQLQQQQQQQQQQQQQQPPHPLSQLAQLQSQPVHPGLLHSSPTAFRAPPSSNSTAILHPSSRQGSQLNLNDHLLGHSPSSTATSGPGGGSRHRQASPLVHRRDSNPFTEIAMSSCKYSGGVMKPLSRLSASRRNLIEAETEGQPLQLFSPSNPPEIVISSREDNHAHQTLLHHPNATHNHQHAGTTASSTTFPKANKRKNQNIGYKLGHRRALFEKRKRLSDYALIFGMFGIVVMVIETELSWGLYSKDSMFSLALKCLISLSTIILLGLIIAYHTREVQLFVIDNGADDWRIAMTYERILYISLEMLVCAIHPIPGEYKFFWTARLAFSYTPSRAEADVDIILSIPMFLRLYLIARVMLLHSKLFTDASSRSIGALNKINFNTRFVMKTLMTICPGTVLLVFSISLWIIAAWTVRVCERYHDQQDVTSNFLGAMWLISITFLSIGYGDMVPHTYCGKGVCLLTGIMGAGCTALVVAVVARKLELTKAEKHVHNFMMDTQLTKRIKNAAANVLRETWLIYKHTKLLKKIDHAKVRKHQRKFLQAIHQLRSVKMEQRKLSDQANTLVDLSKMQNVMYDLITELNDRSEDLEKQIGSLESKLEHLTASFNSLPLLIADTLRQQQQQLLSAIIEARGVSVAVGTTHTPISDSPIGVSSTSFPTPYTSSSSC
T2 sequence (P16390 whole entry): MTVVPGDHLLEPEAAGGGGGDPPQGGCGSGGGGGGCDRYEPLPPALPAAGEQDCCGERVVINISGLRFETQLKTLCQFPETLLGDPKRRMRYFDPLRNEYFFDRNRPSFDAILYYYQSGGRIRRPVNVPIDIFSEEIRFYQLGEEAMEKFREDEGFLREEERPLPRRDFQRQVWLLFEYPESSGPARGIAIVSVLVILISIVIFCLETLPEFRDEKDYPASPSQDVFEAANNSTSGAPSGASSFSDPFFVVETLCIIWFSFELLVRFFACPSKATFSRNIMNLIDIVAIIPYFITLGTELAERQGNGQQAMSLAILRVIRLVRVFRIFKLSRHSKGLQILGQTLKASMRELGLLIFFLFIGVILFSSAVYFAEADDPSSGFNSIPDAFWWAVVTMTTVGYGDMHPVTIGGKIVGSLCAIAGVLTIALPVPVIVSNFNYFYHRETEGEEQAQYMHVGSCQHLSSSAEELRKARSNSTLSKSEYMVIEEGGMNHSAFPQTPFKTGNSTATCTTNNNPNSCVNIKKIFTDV
T5 sequence (P70604 whole entry): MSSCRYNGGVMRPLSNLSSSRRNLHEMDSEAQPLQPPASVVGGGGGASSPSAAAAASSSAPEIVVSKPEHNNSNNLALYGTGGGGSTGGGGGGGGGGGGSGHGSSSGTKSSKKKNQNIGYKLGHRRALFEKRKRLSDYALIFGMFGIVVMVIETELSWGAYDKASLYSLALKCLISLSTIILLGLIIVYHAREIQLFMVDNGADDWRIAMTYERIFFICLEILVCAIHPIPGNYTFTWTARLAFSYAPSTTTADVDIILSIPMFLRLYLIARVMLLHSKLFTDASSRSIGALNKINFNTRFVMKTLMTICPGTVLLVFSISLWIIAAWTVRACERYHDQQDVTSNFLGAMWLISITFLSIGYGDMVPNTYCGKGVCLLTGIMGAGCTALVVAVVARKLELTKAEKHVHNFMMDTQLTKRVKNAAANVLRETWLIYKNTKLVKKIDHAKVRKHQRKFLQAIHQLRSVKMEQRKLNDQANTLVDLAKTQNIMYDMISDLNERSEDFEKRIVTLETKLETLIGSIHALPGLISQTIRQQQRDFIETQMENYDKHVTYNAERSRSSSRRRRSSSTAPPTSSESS
T7 sequence (P16388 whole entry): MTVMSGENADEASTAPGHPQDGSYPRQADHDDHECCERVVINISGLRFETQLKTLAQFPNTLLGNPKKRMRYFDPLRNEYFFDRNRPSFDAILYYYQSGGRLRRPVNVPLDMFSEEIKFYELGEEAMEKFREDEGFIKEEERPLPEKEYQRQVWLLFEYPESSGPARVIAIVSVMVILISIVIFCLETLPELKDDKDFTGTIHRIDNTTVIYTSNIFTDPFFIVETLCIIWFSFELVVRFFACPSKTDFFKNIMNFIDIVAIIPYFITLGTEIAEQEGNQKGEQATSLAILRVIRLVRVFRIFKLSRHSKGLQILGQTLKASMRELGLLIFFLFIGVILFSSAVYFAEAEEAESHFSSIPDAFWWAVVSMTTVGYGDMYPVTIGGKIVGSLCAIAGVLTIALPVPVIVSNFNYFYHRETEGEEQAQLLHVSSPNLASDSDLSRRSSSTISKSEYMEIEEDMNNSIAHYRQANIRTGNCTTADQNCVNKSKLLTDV
T9 sequence (P22459 whole entry): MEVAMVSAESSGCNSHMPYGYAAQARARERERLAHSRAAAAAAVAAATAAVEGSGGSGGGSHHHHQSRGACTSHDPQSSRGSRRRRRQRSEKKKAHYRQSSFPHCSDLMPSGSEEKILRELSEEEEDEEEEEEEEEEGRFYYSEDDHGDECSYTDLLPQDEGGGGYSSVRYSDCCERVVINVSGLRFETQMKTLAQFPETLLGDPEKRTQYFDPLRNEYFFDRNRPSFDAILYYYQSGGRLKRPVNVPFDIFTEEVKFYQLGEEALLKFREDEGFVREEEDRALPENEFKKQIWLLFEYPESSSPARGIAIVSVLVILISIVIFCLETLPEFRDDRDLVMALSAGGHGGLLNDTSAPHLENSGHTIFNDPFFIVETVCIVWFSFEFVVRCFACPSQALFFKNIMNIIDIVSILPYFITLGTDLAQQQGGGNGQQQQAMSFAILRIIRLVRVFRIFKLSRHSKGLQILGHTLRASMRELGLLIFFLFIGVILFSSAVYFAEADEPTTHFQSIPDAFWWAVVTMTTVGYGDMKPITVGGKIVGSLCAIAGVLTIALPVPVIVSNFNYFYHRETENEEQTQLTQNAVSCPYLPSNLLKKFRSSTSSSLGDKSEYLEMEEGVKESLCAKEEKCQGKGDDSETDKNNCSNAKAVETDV

Structure (SMILES)	IC50 (KV11.1 (hERG))	IC50 (KV1.3)	IC50 (KCa3.1 channel; [2])	IC50 (KCa3.1 channel; KCa3.1, Table 5)	IC50 (KCa3.1 channel; KCa3.1 IC50 (nM), Table 3)	IC50 (KCa2.3)	selectivity ratio [1]	IC50 (CaV1.2 channel)	IC50 (KV1.5)	IC50 (KCa3.1 channel; [3])	further results
COC(=O)C1=CNC=C(C(=O)OC)C1c1cc(F)cc(C(F)(F)F)c1 [Compound 109]	> 10 µM	> 10 µM	4.5 ± 0.2 nM	4.5 ± 0.2 nM	4.5 nM	> 10 µM	2360	10.6 µM	> 10 µM		
COC(=O)C1=C(C)NC(C)=C(C(=O)OC)C1c1ccccc1[N+](=O)[O-] [Compound 07]										4000 nM	IC50 (KCa3.1 channel; Table 3, read-out: KCa3.1 IC50): 4000 nM
COC(=O)C1=CNC=C(C(=O)OC)C1c1cc(F)c(F)c(C(F)(F)F)c1 [Compound 110, Dimethyl 4-(3,4-difluoro-5-(trifluoromethyl)phenyl)-1,4-dihydropyridine-3,5-dicarboxylate]	> 10 µM	> 10 µM	6.9 ± 1.3 nM	6.9 ± 1.3 nM	6.9 nM	> 10 µM	1320	9.1 µM	> 10 µM		
CCOC(=O)C1=C(C)NC(C)=C(C(=O)OC)C1c1cccc([N+](=O)[O-])c1 (stereo not shown) [Compound 08]										2300 nM	IC50 (KCa3.1 channel; Table 3, read-out: KCa3.1 IC50): 2300 nM
COC(=O)C1=C(C)NC(C)=C(C(=O)OC)C1c1ccc(Cl)c(C(F)(F)F)c1 [Compound 102]			7 ± 0.2 nM		7 nM		342	2.4 µM			
COC(=O)C1=C(C)NC(C)=C(C(C)=O)C1c1cccc([N+](=O)[O-])c1 (stereo not shown) [Compound 79]			142 ± 7.6 nM		142 nM		14	2 µM			
COC(=O)C1=CNC=C(C(=O)OC)C1c1cccc(C(F)(F)F)c1 [Compound 108, Dimethyl 4-(3-(trifluoromethyl)phenyl)-1,4-dihydropyridine-3,5-dicarboxylate]	> 10 µM	> 10 µM	18.5 ± 1.1 nM	18.5 ± 1.1 nM	18.5 nM	7 µM	1190	22 µM	> 10 µM		IC50 (KCa2.2): > 10 µM; IC50 (KCa1.1): > 10 µM; IC50 (KV1.1): > 10 µM; IC50 (KV4.2): > 10 µM; IC50 (KV1.4): > 10 µM; IC50 (KV3.1): > 10 µM; IC50 (KV1.2): > 10 µM; IC50 (KV1.7): > 10 µM
COCCOC(=O)C1=C(C)NC(C)=C(C(=O)OCCOC)C1c1cccc([N+](=O)[O-])c1 [Compound 06]			9880 nM								
COC(=O)C1=CNC(C)=C(C(=O)OC)C1c1ccc(F)c(C(F)(F)F)c1 (stereo not shown) [Compound 104, Dimethyl 4-(4-fluoro-3-(trifluoromethyl)phenyl)-2-methyl-1,4-dihydropyridine-3,5-dicarboxylate]	> 10 µM	> 10 µM		7.6 ± 1.7 nM	7.6 nM	8 µM	644	4.9 µM	> 10 µM		IC50 (KCa2.2): > 10 µM; IC50 (KCa1.1): > 10 µM; IC50 (KV1.1): > 10 µM; IC50 (KV4.2): > 10 µM; IC50 (KV1.4): > 10 µM; IC50 (KV3.1): > 10 µM; IC50 (KV1.2): > 10 µM; IC50 (KV1.7): > 10 µM
COCCOC(=O)C1=C(C)NC(C)=C(C(=O)OC(C)C)C1c1cccc([N+](=O)[O-])c1 (stereo not shown) [Compound 04]										> 10000 nM	
COC(=O)C1=C(C)NC(C)=C(C(C)=O)C1c1ccc(F)c(C(F)(F)F)c1 (stereo not shown) [Compound 57]			16.8 ± 0.9 nM		16.8 nM		89	1.5 µM			
COC(=O)C1=C(C)NC(C)=C(C(=O)OCCN2CCN(C(c3ccccc3)c3ccccc3)CC2)C1c1cccc([N+](=O)[O-])c1 (stereo not shown) [Compound 03]										> 10000 nM	
COC(=O)C1=CNC=C(C(=O)OC)C1c1ccc(Cl)c(C(F)(F)F)c1 [Compound 113, Dimethyl 4-(4-chloro-3-(trifluoromethyl)phenyl)-1,4-dihydropyridine-3,5-dicarboxylate]	> 10 µM	> 10 µM	5.7 ± 0.3 nM	5.7 ± 0.3 nM	5.7 nM	> 10 µM	649	3.7 µM	> 10 µM		

From patent publication US20230416203A1, “POTENT AND SELECTIVE INHIBITORS OF THE CALCIUM-ACTIVATED POTASSIUM CHANNEL, KCA3.1, FOR USE AS PLATFORM THERAPEUTICS” (priority 2020, published 2023)
